Assay results taken from ChEMBL document CHEMBL1152505, “Enaminones 10. Molecular modeling aspects of the 5-methylcyclohexenone derivatives” (Bioorg Med Chem, 2009).

species: Mus musculus; assay: Protective index, ratio of TD50 for mouse to ED50 for maximal electroshock-induced mouse seizure model; type: functional; settings: not given

SMILES | PI
CC1CC(=O)C=C(Nc2ccc(I)cc2)C1 (stereo unspecified) | 4.5
CC1CC(=O)C=C(Nc2ccc(Cl)cc2)C1 (stereo unspecified) | 6.6

species: Rattus norvegicus; assay: Anticonvulsant activity in rat assessed as inhibition of maximal electroshock-induced seizures; type: functional; settings: not given

SMILES | ED50 [mg/kg]
CC1CC(=O)C=C(Nc2ccc(C(F)(F)F)cc2)C1 (stereo unspecified) | 10.3
COc1cccc(NC2=CC(=O)CC(C)C2)c1 (stereo unspecified) | 39.4
CC1CC(=O)C=C(Nc2ccc(I)cc2)C1 (stereo unspecified) | 17.6
CC1CC(=O)C=C(Nc2ccc(Br)cc2)C1 (stereo unspecified) | 7.6
CC1CC(=O)C=C(Nc2ccc(OC(F)(F)F)cc2)C1 (stereo unspecified) | 6.5
CC1CC(=O)C=C(Nc2ccc(Cl)cc2)C1 (stereo unspecified) | 14.7
CC1CC(=O)C=C(Nc2ccc([N+](=O)[O-])cc2)C1 (stereo unspecified) | 18.4

species: Rattus norvegicus; assay: Anticonvulsant activity against maximal electroshock-induced seizures in rat assessed as time to peak effect; type: functional; settings: not given

SMILES | Time [h]
CC1CC(=O)C=C(Nc2ccc(C(F)(F)F)cc2)C1 (stereo unspecified) | 1
COc1cccc(NC2=CC(=O)CC(C)C2)c1 (stereo unspecified) | 0.5
CC1CC(=O)C=C(Nc2ccc(I)cc2)C1 (stereo unspecified) | 2
CC1CC(=O)C=C(Nc2ccc(Br)cc2)C1 (stereo unspecified) | 0.5
CC1CC(=O)C=C(Nc2ccc(OC(F)(F)F)cc2)C1 (stereo unspecified) | 0.5
CC1CC(=O)C=C(Nc2ccc(Cl)cc2)C1 (stereo unspecified) | 1
CC1CC(=O)C=C(Nc2ccc([N+](=O)[O-])cc2)C1 (stereo unspecified) | 4

species: Mus musculus; assay: Anticonvulsant activity against maximal electroshock-induced seizures in mouse assessed as time to peak effect; type: functional; settings: not given

SMILES | Time [h]
CC1CC(=O)C=C(Nc2ccc(I)cc2)C1 (stereo unspecified) | 0.25
CC1CC(=O)C=C(Nc2ccc(Cl)cc2)C1 (stereo unspecified) | 0.25

system: not listed separately; assay: Toxicity in rat; type: organism-based; settings: in vivo

SMILES | TD50 [mg/kg]
CC1CC(=O)C=C(Nc2ccc(C(F)(F)F)cc2)C1 (stereo unspecified) | > 500
COc1cccc(NC2=CC(=O)CC(C)C2)c1 (stereo unspecified) | > 500
CC1CC(=O)C=C(Nc2ccc(I)cc2)C1 (stereo unspecified) | > 500
CC1CC(=O)C=C(Nc2ccc(Br)cc2)C1 (stereo unspecified) | > 500
CC1CC(=O)C=C(Nc2ccc(OC(F)(F)F)cc2)C1 (stereo unspecified) | > 400
CC1CC(=O)C=C(Nc2ccc(Cl)cc2)C1 (stereo unspecified) | > 186
CC1CC(=O)C=C(Nc2ccc([N+](=O)[O-])cc2)C1 (stereo unspecified) | > 500

species: Mus musculus; assay: Anticonvulsant activity in mouse assessed as inhibition of maximal electroshock-induced seizures; type: functional; settings: not given

SMILES | ED50 [mg/kg]
CC1CC(=O)C=C(Nc2ccc(I)cc2)C1 (stereo unspecified) | 77
CC1CC(=O)C=C(Nc2ccc(Cl)cc2)C1 (stereo unspecified) | 16.7

system: not listed separately; assay: Toxicity in mouse; type: organism-based; settings: in vivo

SMILES | TD50 [mg/kg]
CC1CC(=O)C=C(Nc2ccc(I)cc2)C1 (stereo unspecified) | 344
CC1CC(=O)C=C(Nc2ccc(Cl)cc2)C1 (stereo unspecified) | 111

species: Rattus norvegicus; assay: Protective index, ratio of TD50 for rat to ED50 for maximal electroshock-induced rat seizure model; type: functional; settings: not given

SMILES | PI
CC1CC(=O)C=C(Nc2ccc(C(F)(F)F)cc2)C1 (stereo unspecified) | >48.4
COc1cccc(NC2=CC(=O)CC(C)C2)c1 (stereo unspecified) | >12.7
CC1CC(=O)C=C(Nc2ccc(I)cc2)C1 (stereo unspecified) | >28.3
CC1CC(=O)C=C(Nc2ccc(Br)cc2)C1 (stereo unspecified) | >65.8
CC1CC(=O)C=C(Nc2ccc(OC(F)(F)F)cc2)C1 (stereo unspecified) | >62
CC1CC(=O)C=C(Nc2ccc(Cl)cc2)C1 (stereo unspecified) | >83.3
CC1CC(=O)C=C(Nc2ccc([N+](=O)[O-])cc2)C1 (stereo unspecified) | >27.4
